The values below come from ChEMBL document CHEMBL3779793, “Squaraines bearing halogenated moieties as anticancer photosensitizers: Synthesis, characterization and biological evaluation” (Eur J Med Chem, 2016).

Data set [1] is described as follows: Drug uptake in human HT1080 cells at 1 uM by flow cytometric analysis. Type of data set: ADME, cell-based. To be noted: ht-1080, 1 µM, TDE = time-dependent effect. For orientation: Flow cytometry measures light scatter and fluorescence of single cells or particles in a stream.
Data set [2] concerns HT-1080. The data set is described as follows: Photocytotoxicity against human HT1080 cells at 1 uM preincubated for 24 hrs followed by red LED irradiation for 20 mins measured after 24 to 72 hrs by WST-1 assay. The format is functional, cell-based. (In general: Formazan colour is commonly taken as a measure of viable cells.)
Data set [3] can be described thus: Dark cytotoxicity against human HT1080 cells at 2 to 10 uM after 24 to 72 hrs by WST-1 assay. As to conditions: ht-1080, 10 µM. The format is cell-based.
Data set [4] is described as follows: Dark cytotoxicity against human HT1080 cells at 0.25 to 1 uM after 24 to 72 hrs by WST-1 assay. To be noted: ht-1080, 1 µM. The format is cell-based.
Data set [5] in a line: Induction of singlet oxygen generation in PBS at 5 uM measured within 5 to 10 mins by DPBF-based singlet oxygen trapping method in presence of light. Type of data set: physicochemical. To be noted: buffer.
Data set [6] in a line: Drug uptake in human HT1080 cells at 1 uM upto 6 hrs by flow cytometric analysis. The format is ADME, cell-based. As to conditions: ht-1080, 6 h.
Data set [7] in a line: Drug uptake in human HT1080 cells at 1 uM upto 24 hrs by flow cytometric analysis. Type of data set: ADME, cell-based. To be noted: ht-1080, 24 h.
A short description of data set [8]: Induction of singlet oxygen generation in PBS at 5 uM measured within 60 mins by DPBF-based singlet oxygen trapping method in presence of light. To be noted: buffer, 1 h. The format is physicochemical.
Data set [9] is described as follows: Induction of apoptosis in human HT1080 cells at 1 uM preincubated for 24 hrs measured after 6 hrs by Annexin V Alexa Fluor and PI staining based flow cytometry. Type of data set: cell-based. To be noted: ht-1080, 6 h.
Data set [10] is described as follows: Upregulation of GPX1 mRNA expression in human HT1080 cells at 1 uM preincubated for 24 hrs followed by red LED irradiation for 20 mins measured after 0.5 hrs by RT-PCR analysis relative to control. Type of data set: functional, cell-based. To be noted: HT-1080.
Data set [11] can be described thus: Upregulation of NQO1 mRNA expression in human HT1080 cells at 1 uM preincubated for 24 hrs followed by red LED irradiation for 20 mins measured after 0.5 hrs by RT-PCR analysis relative to control. Type of data set: functional, cell-based. As to conditions: HT-1080.
A short description of data set [12]: Induction of necrosis in human HT1080 cells at 1 uM preincubated for 24 hrs measured after 6 hrs by Annexin V Alexa Fluor and PI staining based flow cytometry. To be noted: ht-1080, 6 h. Type of data set: cell-based.
Data set [13] has as its system HT-1080. The data set is described as follows: Induction of reactive oxygen species generation in human HT1080 cells assessed as increase in integrated median fluorescence intensity at 1 uM preincubated for 24 hrs followed by red LED irradiation for 20 mins measured after 1 min by DCFH-DA probe based flow cytometry relative to control. The format is functional.
Data set [14] in a line: Drug uptake in mitochondria of human HT1080 cells at 1 uM incubated for 24 hrs by MitoTracker green dye based laser scanning confocal microscopy. Type of data set: ADME. To be noted: ht-1080, 24 h.
Data set [15] can be described thus: Dark cytotoxicity against human HT1080 cells at 2 uM after 24 to 72 hrs by WST-1 assay. The format is cell-based. To be noted: ht-1080, 2 µM.
A short description of data set [16]: Upregulation of TP-53 mRNA expression in human HT1080 cells at 1 uM preincubated for 24 hrs followed by red LED irradiation for 20 mins measured after 3 hrs by RT-PCR analysis. The format is functional, cell-based. As to conditions: HT-1080.
Data set [17] in a line: Upregulation of NQO1 mRNA expression in human HT1080 cells at 1 uM preincubated for 24 hrs followed by red LED irradiation for 20 mins measured upto 24 hrs by RT-PCR analysis. Type of data set: functional, cell-based. As to conditions: HT-1080.
Data set [18] can be described thus: Upregulation of SOD2 mRNA expression in human HT1080 cells at 1 uM preincubated for 24 hrs followed by red LED irradiation for 20 mins measured after 0.5 hrs by RT-PCR analysis relative to control. The format is functional, cell-based. To be noted: HT-1080.
Data set [19] in a line: Upregulation of GPX1 mRNA expression in human HT1080 cells at 1 uM preincubated for 24 hrs followed by red LED irradiation for 20 mins measured after 3 to 24 hrs by RT-PCR analysis. Type of data set: functional, cell-based. To be noted: HT-1080.
Data set [20] is described as follows: Downregulation of BCL-2 mRNA expression in human HT1080 cells at 1 uM preincubated for 24 hrs followed by red LED irradiation for 20 mins measured after 0.5 to 24 hrs by RT-PCR analysis. The format is functional, cell-based. To be noted: HT-1080.
The nature of data set [21]: Upregulation of BAX mRNA expression in human HT1080 cells at 1 uM preincubated for 24 hrs followed by red LED irradiation for 20 mins measured after 0.5 to 24 hrs by RT-PCR analysis. Type of data set: functional, cell-based. To be noted: HT-1080.
The nature of data set [22]: Upregulation of APAF1 mRNA expression in human HT1080 cells at 1 uM preincubated for 24 hrs followed by red LED irradiation for 20 mins measured after 0.5 to 24 hrs by RT-PCR analysis. The format is functional, cell-based. As to conditions: HT-1080.
In data set [23] the test system is HT-1080. The data set is described as follows: Increase in release of mitochondrial cytochrome c release in cytosolic extracts of human HT1080 cells at 1 uM preincubated for 24 hrs followed by red LED irradiation for 20 mins measured after 3 hrs by ELISA method. Type of data set: functional, cell-based. (In general: An ELISA detects its analyte on a solid surface through an enzyme-linked reagent.)

Data set [24] relates to HT-1080. In words: Increase in release of mitochondrial cytochrome c release in cytosolic extracts of human HT1080 cells at 1 uM preincubated for 24 hrs followed by red LED irradiation for 20 mins measured after 0.5 hrs by ELISA method. Type of data set: functional, cell-based.
Data set [25] deals with HT-1080. The data set is described as follows: Induction of DNA damage in human HT1080 cells at 1 uM preincubated for 24 hrs followed by red LED irradiation for 20 mins measured after 30 mins by ARP probe based flow cytometry. The format is functional, cell-based.
In data set [26] the test system is HT-1080. In words: Induction of necrosis in human HT1080 cells at 1 uM preincubated for 24 hrs followed by red LED irradiation for 20 mins measured after 6 hrs by Annexin V Alexa Fluor and PI staining based flow cytometry. Type of data set: functional.
Data set [27] deals with HT-1080. In words: Induction of reactive oxygen species generation in human HT1080 cells at 1 uM preincubated for 24 hrs followed by red LED irradiation for 20 mins measured upto 15 mins by DCFH-DA probe based flow cytometry. Type of data set: functional, cell-based.
Data set [28] concerns HT-1080. In words: Photocytotoxicity against human HT1080 cells at 1 uM preincubated for 24 hrs followed by red LED irradiation for 20 mins measured after 72 hrs by WST-1 assay. Type of data set: functional, cell-based.
The subject of data set [29] is HT-1080. In words: Photocytotoxicity against human HT1080 cells at 1 uM preincubated for 24 hrs followed by red LED irradiation for 20 mins measured after 48 to 72 hrs by WST-1 assay. The format is functional, cell-based.

Activity calls are given as the source filed them. No cut-off for these calls is given here.

For the compound `CCN1/C(=C/C2=C([O-])C(=C\C3=[N+](CC)c4ccc(I)cc4C3(C)C)/C2=O)C(C)(C)c2cc(I)ccc21`, the Drug uptake result in data set [1] was “tde”. Moreover, in the data set on HT-1080 [2], the result was inactive. In addition, the Activity entry is “Dose-dependent effect” in data set [3], “Non-toxic” in data set [4] and “Active” in data set [5].

On to `CC1(C)C(/C=C2/C(=O)C(/C=C3\Nc4ccc(Br)cc4C3(C)C)=C2O)=Nc2ccc(Br)cc21`, for which, in the data set with HT-1080 [2], the result was inactive. Also, the Drug uptake result in [6] was “Active”. The Activity result in [3] is listed as “Dose-dependent effect”; in data set [4], “Non-toxic”; in data set [5], “Active”.

`CC1(C)C(/C=C2/C(=O)C(/C=C3\Nc4ccccc4C3(C)C)=C2O)=Nc2ccccc21`: in data set [7], the Drug uptake result is listed as “Active”. For the same compound, the outcome in the data set on HT-1080 [2] was inactive. The Activity entry in [3] is recorded as “Dose-dependent effect”; in [4] it was “Non-toxic”; in data set [8] it was “Active”.

For `CCCCN1/C(=C/C2=C([O-])C(=C\C3=[N+](CCCC)c4ccc(Br)cc4C3(C)C)/C2=O)C(C)(C)c2cc(Br)ccc21`, the Drug uptake entry is recorded as “tde” in data set [1] and “Active” in [14]. The Activity result was “Non-toxic” in data set [9]; “Non-toxic” in data set [12]; “Dose-dependent effect” in [3]; “Non-toxic” in data set [15]; “Non-toxic” in data set [4]; “Active” in data set [5]. Further, the Activity with HT-1080 [26] is recorded as 81.9%. Besides, the fold change (FC) was 34.6 in data set [10], 3.39 in data set [11] and 15.32 in the data set on HT-1080 [13]. The outcome (with HT-1080 [2]; in [16]; in data set [20]; in the data set on HT-1080 [24]; in the data set on HT-1080 [25]) was Active. The outcome (in [17]; in [18]; in data set [19]; in [21]; in [22]; in the data set on HT-1080 [23]) was inactive. In the data set on HT-1080 [27], the result was inactive.

Turning to `CC1(C)C(/C=C2/C(=O)C(/C=C3\Nc4ccc(I)cc4C3(C)C)=C2O)=Nc2ccc(I)cc21`, the Drug uptake entry in data set [6] is “Active”. The Activity result in data set [3] is “Dose-dependent effect”; in [4] it was “Non-toxic”; in [5], “Active”. Further, the result in the data set with HT-1080 [28] was Active.

For the compound `CCN1/C(=C/C2=C([O-])C(=C\C3=[N+](CC)c4ccc(Br)cc4C3(C)C)/C2=O)C(C)(C)c2cc(Br)ccc21`, the Drug uptake result in data set [1] was “tde”. In the data set on HT-1080 [29], the result was Active. Moreover, the Activity entry was “Dose-dependent effect” in [3], “Non-toxic” in [15], “Non-toxic” in data set [4] and “Active” in [5].

For the compound `CCCCN1/C(=C/C2=C([O-])C(=C\C3=[N+](CCCC)c4ccc(I)cc4C3(C)C)/C2=O)C(C)(C)c2cc(I)ccc21`, the Drug uptake result in data set [1] was “tde”; in [14], “Active”. Besides, the Activity entry in data set [9] is listed as “Non-toxic”; in [12], “Non-toxic”; in [3], “Dose-dependent effect”; in data set [15], “Non-toxic”; in data set [4], “Non-toxic”; in data set [5], “Active”. The same compound registered an Activity in the data set with HT-1080 [26] of 83%. In addition, the fold change (FC) in data set [10] stood at 54.6; in data set [11] it was 5.56; in the data set with HT-1080 [13], 32; in [18] it was 5.21. Moreover, the outcome (in the data set with HT-1080 [2]; in data set [20]; with HT-1080 [24]; with HT-1080 [25]) was Active. Further, the outcome (in data set [16]; in [17]; in [19]; in data set [21]; in data set [22]; in the data set on HT-1080 [23]) was inactive. Moreover, the outcome in the data set on HT-1080 [27] was inactive.
